Measured values: patent US12077503B2, “Substituted cyclic amides and their use as herbicides” (FMC CORPORATION, priority 2015, dated 2024)

COc1cccc([C@H]2CNC(=O)[C@@H]2C(=O)Nc2cccc(F)c2F)c1F [Compound 1061]
melting point: 161 to 165 °C

O=C1NC[C@H](c2ccc(C(F)(F)F)cn2)[C@H]1C(=O)Nc1ccc(F)c(F)c1F [Compound 1105]
melting point: 173 to 176 °C

C=C(C)c1ccc([C@H]2CN(C)C(=O)[C@@H]2C(=O)Nc2cccc(F)c2C)cc1 [Compound 1150]
melting point: 137 to 141 °C

CN1C[C@H](c2cc(Cl)cc(Cl)c2)[C@@H](C(=O)Nc2cccc(F)c2F)C1=O [Compound 1270]
melting point: 88 to 92 °C

O=C1NC[C@H](c2cc(Cl)cc(Cl)c2)[C@H]1C(=O)Nc1cccc(F)c1F [Compound 1273]
melting point: 136 to 140 °C

COc1ccc([C@H]2CN(C)C(=O)[C@@H]2C(=O)Nc2ccccc2F)cc1 [Compound 1342]
melting point: 103 to 107 °C
